Patent publication US20230406865A1, “CRYSTAL FORM OF FREE BASE OF INHIBITOR CONTAINING BICYCLIC RING DERIVATIVE AND PREPARATION METHOD AND APPLICATION OF CRYSTAL FORM” (SHANGHAI HANSOH BIOMEDICAL CO., LTD., priority 2020, published 2023)
Values after ≈ are worked out from the molar mass of the structure shown. Where two headings read alike, the source gives them in different places.

Key:
[1] = Hygroscopicity (DVS) of crystal form I; format: physicochemical
Procedure: The crystal form I of the free base of the compound was placed in the saturated water vapor at the […] relative humidity to make the compound reach dynamic equilibrium with the water vapor, and the percentage of hygroscopic weight gain of the compound was calculated after equilibrium.

[2] = Solid stability of crystal form I (HPLC impurities); format: physicochemical; details: 14 days
Procedure: To investigate the physical and chemical stability of the compound under light 5000 lx, high temperature 60° C., high humidity 92.5% RH, high temperature and high humidity 50° C./75% RH conditions to provide a basis for the storage of the compound.
[…] 5000 lx, high temperature 60° C., high humidity 92.5% RH, high temperature and high humidity 50° C./75% RH, and the content was determined by HPLC with external standard method, and the changes of the related substances were calculated by the area normalization method for chromatographic peak.

[3] = Thermodynamic solubility in different media at 37° C.; format: physicochemical; details: thermodynamic from solid, read-out: Solubility of crystal form I
Procedure: To compare the solubility of the crystal form I of the free base in pH 1-8 USP buffer, artificial simulated gastric fluid (FaSSGF), fasting artificial simulated intestinal fluid (FaSSIF), non-fasting artificial simulated intestinal fluid (FeSSIF) and pure water and other medium to provide a basis for the assessment of druggablitity.
About 1 mg of the crystal form I of the free base was mixed and suspended in different mediums for 4 hours.

[4] = biological target: T1, RET M918T (Homo sapiens, UniProt P07949, M918T); assay: HTRF kinase activity inhibition, RET M918T; format: biochemical; details: ATP at Km
T1 construct: purchased Carna 08-508
T1 sequence (P07949 29-1114 M918T): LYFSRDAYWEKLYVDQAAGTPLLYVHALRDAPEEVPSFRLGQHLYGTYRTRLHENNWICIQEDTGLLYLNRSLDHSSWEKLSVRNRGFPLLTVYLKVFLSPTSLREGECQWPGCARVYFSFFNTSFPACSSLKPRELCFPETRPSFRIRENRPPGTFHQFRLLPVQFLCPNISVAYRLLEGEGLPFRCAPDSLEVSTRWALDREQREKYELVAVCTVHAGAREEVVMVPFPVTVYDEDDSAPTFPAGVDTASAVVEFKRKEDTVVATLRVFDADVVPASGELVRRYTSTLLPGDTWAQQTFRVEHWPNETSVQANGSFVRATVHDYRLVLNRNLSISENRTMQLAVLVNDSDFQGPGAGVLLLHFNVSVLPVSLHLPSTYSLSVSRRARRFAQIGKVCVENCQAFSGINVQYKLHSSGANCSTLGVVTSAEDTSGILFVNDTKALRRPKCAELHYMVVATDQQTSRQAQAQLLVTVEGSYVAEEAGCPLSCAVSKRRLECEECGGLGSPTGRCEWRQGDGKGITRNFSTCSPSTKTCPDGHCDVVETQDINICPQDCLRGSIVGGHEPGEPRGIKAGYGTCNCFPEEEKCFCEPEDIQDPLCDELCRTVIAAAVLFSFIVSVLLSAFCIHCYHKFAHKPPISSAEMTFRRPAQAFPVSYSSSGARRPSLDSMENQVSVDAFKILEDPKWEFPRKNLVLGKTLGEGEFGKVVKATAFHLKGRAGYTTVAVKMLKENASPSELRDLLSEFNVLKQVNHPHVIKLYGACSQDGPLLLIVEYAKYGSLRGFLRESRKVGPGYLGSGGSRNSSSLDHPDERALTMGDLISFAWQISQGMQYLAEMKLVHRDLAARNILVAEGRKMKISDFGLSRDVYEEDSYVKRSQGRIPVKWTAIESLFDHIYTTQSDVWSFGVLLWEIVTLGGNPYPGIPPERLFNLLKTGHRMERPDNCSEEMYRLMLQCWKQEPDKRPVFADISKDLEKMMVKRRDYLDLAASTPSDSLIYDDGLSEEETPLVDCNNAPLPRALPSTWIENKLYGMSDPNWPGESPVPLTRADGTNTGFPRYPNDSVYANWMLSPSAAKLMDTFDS
Text: (§1) 2.2 Experimental Reagents: • RET enzyme was purchased from Carna Company, and the article number was 08-159; • RET M918T enzyme was purchased from Carna Company, and the article number was 08-508; • KIF5B-RET was purchased from SignalChem Company, the article number was R02-19FG-05; • CCDC6-RET was purchased from SignalChem Company, the article number was R02-19BG-05; • RET V804M enzyme was purchased from Thermofisher Company, and the article number was PV6223; • RET V804L enzyme was purchased from Thermofisher Company, and the article number was PV4397; • HTRF KinEASE-TK kit was purchased from Cisbio Company, and the article number was 62TK0PEC; • ATP was purchased from Thermofisher Company, and the article number was PV3227; • 384-well plate was purchased from PerkinElmer Company, and the article number was 6007290.
(§2) In this experiment, a homogeneous time-resolved fluorescence (HTRF) method was used for the detection of compounds on RET kinase activity.

[5] = biological target: T2, CCDC6-RET (Homo sapiens, UniProt P07949); assay: HTRF kinase activity inhibition, CCDC6-RET; format: biochemical; details: ATP at Km
T2 construct: purchased SignalChem R02-19BG-05; the other entry of the earlier key: CCDC6 (Q16204, Coiled-coil domain-containing protein 6)
T2 sequence (P07949 with tags, fused parts or gaps): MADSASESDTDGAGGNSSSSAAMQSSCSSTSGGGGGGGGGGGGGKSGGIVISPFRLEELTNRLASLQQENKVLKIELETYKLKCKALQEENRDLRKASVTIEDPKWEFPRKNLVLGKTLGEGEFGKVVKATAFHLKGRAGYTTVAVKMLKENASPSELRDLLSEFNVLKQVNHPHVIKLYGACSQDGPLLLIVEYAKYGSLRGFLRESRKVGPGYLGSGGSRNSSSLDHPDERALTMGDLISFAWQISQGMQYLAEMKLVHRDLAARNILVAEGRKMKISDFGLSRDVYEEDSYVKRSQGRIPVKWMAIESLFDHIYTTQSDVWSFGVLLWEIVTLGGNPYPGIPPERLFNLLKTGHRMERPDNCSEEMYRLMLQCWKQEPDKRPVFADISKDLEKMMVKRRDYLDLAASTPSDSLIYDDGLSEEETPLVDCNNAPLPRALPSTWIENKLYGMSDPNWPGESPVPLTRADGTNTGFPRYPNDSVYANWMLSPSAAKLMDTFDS
Text: as §1, §2

[6] = biological target: T3, RET V804L (Homo sapiens, UniProt P07949, V804L); assay: HTRF kinase activity inhibition, RET V804L; format: biochemical; details: ATP at Km
T3 construct: purchased Thermofisher PV4397
T3 sequence (P07949 29-1114 V804L): as the sequence (P07949 29-1114 M918T) above, with V776L, T890M counted along it
Text: as §1, §2

[7] = biological target: T4, KIF5B-RET (Homo sapiens, UniProt P07949); assay: HTRF kinase activity inhibition, KIF5B-RET; format: biochemical; details: ATP at Km
T4 construct: purchased SignalChem R02-19FG-05; the other entry of the earlier key: KIF5B (P33176, Kinesin-1 heavy chain)
T4 sequence (P07949 with tags, fused parts or gaps): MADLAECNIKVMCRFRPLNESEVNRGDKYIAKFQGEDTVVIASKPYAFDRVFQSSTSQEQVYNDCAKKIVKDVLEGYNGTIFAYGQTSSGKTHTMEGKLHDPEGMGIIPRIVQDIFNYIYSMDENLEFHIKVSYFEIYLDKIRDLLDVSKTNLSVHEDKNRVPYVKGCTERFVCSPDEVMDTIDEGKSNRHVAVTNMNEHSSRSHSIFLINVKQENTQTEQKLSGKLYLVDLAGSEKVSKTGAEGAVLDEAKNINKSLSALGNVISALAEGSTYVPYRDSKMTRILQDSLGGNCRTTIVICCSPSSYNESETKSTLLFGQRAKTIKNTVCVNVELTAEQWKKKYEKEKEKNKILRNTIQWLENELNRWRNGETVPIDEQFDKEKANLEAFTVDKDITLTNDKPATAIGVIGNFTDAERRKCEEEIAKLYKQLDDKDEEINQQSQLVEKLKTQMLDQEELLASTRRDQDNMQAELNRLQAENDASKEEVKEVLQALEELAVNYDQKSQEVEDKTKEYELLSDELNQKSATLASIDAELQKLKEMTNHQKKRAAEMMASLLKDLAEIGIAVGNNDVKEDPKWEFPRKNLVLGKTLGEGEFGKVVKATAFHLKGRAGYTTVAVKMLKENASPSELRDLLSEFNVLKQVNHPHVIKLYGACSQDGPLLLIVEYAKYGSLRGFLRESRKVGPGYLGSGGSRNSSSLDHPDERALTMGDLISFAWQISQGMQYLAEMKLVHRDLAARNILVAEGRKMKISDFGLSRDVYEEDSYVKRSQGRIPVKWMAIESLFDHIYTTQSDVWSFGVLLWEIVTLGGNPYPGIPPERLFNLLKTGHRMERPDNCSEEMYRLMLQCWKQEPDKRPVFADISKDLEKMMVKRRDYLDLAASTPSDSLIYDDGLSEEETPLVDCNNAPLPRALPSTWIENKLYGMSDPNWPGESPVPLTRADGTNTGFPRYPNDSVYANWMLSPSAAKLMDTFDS
Text: as §1, §2

[8] = biological target: T5, RET V804M (Homo sapiens, UniProt P07949, V804M); assay: HTRF kinase activity inhibition, RET V804M; format: biochemical; details: ATP at Km
T5 construct: purchased Thermofisher PV6223
T5 sequence (P07949 29-1114 V804M): as the sequence (P07949 29-1114 M918T) above, with V776M, T890M counted along it
Text: as §1, §2

[9] = High temperature and high humidity/50° C./75% RH

With `C#C[C@@](C)(O)COc1cc(-c2ccc(N3CC4CC(C3)N4Cc3ccc(OC)nc3)nc2)c2c(C#N)cnn2c1` [crystal form I, 6-(((R)-2-hydroxy-2-methylbut-3-yn-1-yl)oxy)-4-(6-(6-((6-methoxypyridin-3-yl)methyl)-3,6-diazabicyclo[3.1.1]heptan-3-yl)pyridin-3-yl)pyrazolo[1,5-a]pyridine-3-carbonitrile] the hygroscopic weight gain ([1]; RH80%, 25° C.) was “about 0.43%”, the hygroscopicity ([1]; RH80%, 25° C.) was “slightly hygroscopicity” and the “XRPD pattern / crystal form after moisture absorption and desorption” value ([1]; two cycles at 0-95% RH) was “the crystal form has not transformed”. For the same compound, the “Increase of total impurities %” value ([2]; High humidity/92.5% RH) was less than 0.02%, the “Maximum increase of single impurity %” value ([2]; High humidity/92.5% RH) was less than 0.02% and the “Increase of total impurities %” value [2, 9] was less than 0.02%. For the same compound, the “Maximum increase of single impurity %” value [2, 9] was 0.11%, the “Increase of total impurities %” value ([2]; High temperature/60° C.) was less than 0.02% and the “Maximum increase of single impurity %” value ([2]; High temperature/60° C.) was 0.06%. The “Increase of total impurities %” value ([2]; Light/5000 lx) was less than 0.02%, the “Maximum increase of single impurity %” value ([2]; Light/5000 lx) was 0.18% and the solubility at 4 h ([3]; FaSSGF (artificial simulated gastric fluid), fassgf or other biorelevant, FaSSGF, 37° C.) was greater than 2000 µg/mL. The solubility at 4 h ([3]; FaSSIF (fasting artificial simulated intestinal fluid), FaSSIF, 37° C.) was 1 µg/mL (≈ 1.87 µM), the solubility at 4 h ([3]; FeSSIF (non-fasting artificial simulated intestinal fluid), FeSSIF, 37° C.) was 90 µg/mL (≈ 168 µM) and the solubility at 4 h ([3]; USP buffer pH 1, simulated gastric fluid, pH 1, 37° C.) was greater than 2000 µg/mL. For the same compound, the solubility at 4 h ([3]; USP buffer pH 2, simulated gastric fluid, pH 2, 37° C.) was greater than 2000 µg/mL, the solubility at 4 h ([3]; USP buffer pH 3, aqueous buffer, pH 3, 37° C.) was 710 µg/mL (≈ 1330 µM) and the solubility at 4 h ([3]; USP buffer pH 4, aqueous buffer, pH 4, 37° C.) was 370 µg/mL (≈ 691 µM). It also gave a solubility at 4 h ([3]; USP buffer pH 5, aqueous buffer, pH 5, 37° C.) of 20 µg/mL (≈ 37.3 µM) and a solubility at 4 h ([3]; USP buffer pH 6, aqueous buffer, pH 6, 37° C.) of 1 µg/mL (≈ 1.87 µM).

For `CC1(NC(=O)c2ncccc2Cl)CCN(c2ccc(-c3cc(C#CC4(O)COC4)cn4ncc(C#N)c34)cn2)CC1` [Embodiment 97, 3-Chloro-N-(1-(5-(3-cyano-6-((3-hydroxyoxetan-3-yl)ethynyl)pyrazolo[1,5-a]pyridin-4-yl)pyridin-2-yl)-4-methylpiperidin-4-yl)picolinamide], the IC50 [4] was 0.37 nM, the IC50 [5] was 1.72 nM and the IC50 [6] was 0.28 nM. For the same compound, the IC50 [7] was 0.5 nM and the IC50 [8] was 1.1 nM.
